{
  "source": "patent US7115624B1",
  "about": "“Method of inhibiting protein tyrosine phosphatase 1B and/or T-cell protein tyrosine phosphatase 4 and/or other PTPases with an Asp residue at position 48” (Novo Nordisk A/S, priority 1999, dated 2006)",
  "format_in_all_cases": "biochemical",
  "key": {"PTPH1": {"target": "T1, PTPH1 (Homo sapiens, UniProt P26045)", "T1 sequence (P26045 646-901 limits assumed)": "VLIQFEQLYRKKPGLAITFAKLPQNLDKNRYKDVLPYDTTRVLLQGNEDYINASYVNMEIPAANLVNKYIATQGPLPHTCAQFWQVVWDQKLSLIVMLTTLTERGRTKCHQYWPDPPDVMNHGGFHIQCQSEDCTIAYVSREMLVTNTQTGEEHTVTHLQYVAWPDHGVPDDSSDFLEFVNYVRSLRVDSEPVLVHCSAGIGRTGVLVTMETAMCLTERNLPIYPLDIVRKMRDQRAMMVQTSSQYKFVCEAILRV", "assay": "PTPase inhibition, p-nitrophenyl phosphate substrate, Ki", "settings": "pH 7.0; wt (Table 4)", "text": "(§1) To test directly, whether the above compound was addressing the proposed region of PTP1B, Compound N was subjected to detailed enzyme kinetic analyses using a set of wildtype (wt) and mutant PTPs. Two enzymes, PTPα and PTPH1, were chosen as representatives for PTPs with bulky side chains in the 259 position. Using a combination of wt and PTP mutants it has previously been shown that Gln259 in PTPα, in addition to its direct effect, also indirectly influences the binding of inhibitors and substrates, most likely due to a negative influence on the rotational freedom of the side chain of Gln262 (Peters et al., J. Biol. Chem. 275: 18201–18209 (2000)). As described above, selectivity can be obtained by introducing a basic nitrogen into 2-(oxalylamino)-4,5,6,7-tetrahydrobenzo[b]thiophene-3-carboxylic acid that causes attraction in PTP1B due to salt bridge formation to Asp48 and repulsion against PTPs with an asparagine in the 48 position, such as PTPα. To analyze if the current approach based on steric hindrance is generally applicable, it was decided to include a PTP with an aspartic acid in position 48. PTPH1, which like PTP1B is an intracellular enzyme with one domain only, was selected for these studies. The results of these studies are shown below (Table 4).\n(§2) The assay conditions are as follows."}, "PTPα [1]": {"target": "T2, PTPα (Homo sapiens, UniProt P18433)", "T2 construct": "PTPα D1", "T2 sequence (P18433 241-501 limits assumed)": "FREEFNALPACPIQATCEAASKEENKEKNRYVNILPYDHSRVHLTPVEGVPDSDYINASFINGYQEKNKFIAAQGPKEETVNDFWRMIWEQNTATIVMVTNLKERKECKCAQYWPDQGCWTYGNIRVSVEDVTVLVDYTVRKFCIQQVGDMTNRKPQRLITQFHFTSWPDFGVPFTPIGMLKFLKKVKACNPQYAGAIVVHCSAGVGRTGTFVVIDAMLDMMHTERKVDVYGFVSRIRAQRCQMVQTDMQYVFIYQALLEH", "assay": "PTPase inhibition, p-nitrophenyl phosphate substrate, Ki", "settings": "pH 7.0; wt (Table 4)", "text": "as §1, §2"}, "PTPε": {"target": "T3, PTPε (Homo sapiens, UniProt P23469)", "T3 construct": "PTPε D1", "T3 sequence (P23469 135-394 limits assumed)": "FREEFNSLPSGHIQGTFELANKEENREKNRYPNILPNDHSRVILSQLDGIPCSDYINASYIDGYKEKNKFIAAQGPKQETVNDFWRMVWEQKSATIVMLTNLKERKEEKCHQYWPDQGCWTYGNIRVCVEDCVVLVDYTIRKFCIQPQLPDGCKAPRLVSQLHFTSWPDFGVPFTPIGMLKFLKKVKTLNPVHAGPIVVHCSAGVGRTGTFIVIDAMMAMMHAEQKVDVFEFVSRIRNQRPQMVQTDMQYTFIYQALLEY", "assay": "PTPase inhibition, p-nitrophenyl phosphate substrate, Ki", "settings": "pH 7.0 (Table 5); read-out: Ki values, PTPε", "protocol": "(§4) The assay conditions are as follows. Appropriate concentrations of the compounds of the invention (e.g., 0.1 to 100 μM) are added to the reaction mixtures containing different concentrations of the substrate, p-nitrophenyl phosphate (range: 0.16 to 10 mM—final assay concentration). The buffer used was 50 mM HEPES pH 7.0, 100 mM sodium chloride, 0.1% (w/v) bovine serum albumin, 5 mM glutathione, and 1 mM EDTA. The reaction was started by addition of the enzyme and carried out in microtiter plates at 25° C. for 60 minutes. The reactions are stopped by addition of NaOH. […] The data are analyzed using nonlinear regression fit to classical Michaelis Menten enzyme kinetic models. Inhibition is expressed as Ki values in μM."}, "PTPβ": {"target": "PTPβ (Homo sapiens, UniProt P23467)", "sequence (P23467 1703-1963 limits assumed)": "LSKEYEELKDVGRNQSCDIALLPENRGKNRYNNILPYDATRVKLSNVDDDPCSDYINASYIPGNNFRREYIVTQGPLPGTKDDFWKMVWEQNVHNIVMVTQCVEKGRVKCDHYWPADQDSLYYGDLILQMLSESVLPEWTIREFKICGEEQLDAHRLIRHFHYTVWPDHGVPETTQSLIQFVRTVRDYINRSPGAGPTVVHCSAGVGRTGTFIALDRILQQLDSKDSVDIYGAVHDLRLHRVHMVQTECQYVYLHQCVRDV", "assay": "PTPase inhibition, p-nitrophenyl phosphate substrate, Ki", "settings": "pH 7.0 (Table 5); read-out: Ki values, PTPβ", "protocol": "as §4"}, "GLEPP1": {"target": "T4, GLEPP1 (Homo sapiens, UniProt Q16827)", "T4 sequence (Q16827 938-1195 limits assumed)": "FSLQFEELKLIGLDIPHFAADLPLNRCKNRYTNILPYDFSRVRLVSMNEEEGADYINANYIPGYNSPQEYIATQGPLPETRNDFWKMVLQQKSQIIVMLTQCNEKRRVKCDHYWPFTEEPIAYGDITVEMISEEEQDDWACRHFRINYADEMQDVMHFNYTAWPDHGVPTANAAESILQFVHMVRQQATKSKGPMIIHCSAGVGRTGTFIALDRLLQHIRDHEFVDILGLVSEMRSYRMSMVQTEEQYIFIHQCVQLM", "assay": "PTPase inhibition, p-nitrophenyl phosphate substrate, Ki", "settings": "pH 7.0 (Table 5)", "procedure": "(§3) Specificity against a broad set of PTPs—It was next analyzed if the side chain of NNC 52–1153 would cause the increased selectivity against other PTPs. NNC 52–1153 was tested against a set of 10 different wt PTP domains (Table 5). It appears from this table that a substantial increase in affinity for PTP1B and TC-PTP has been obtained, while at the same time introducing a very high degree of selectivity against many other PTPs representing a broad spectrum of this class of enzymes (having Asp 48).\nas §2"}, "TC-PTP": {"target": "T5, TC-PTP (Homo sapiens, UniProt P17706)", "T5 sequence (P17706 5-275 limits assumed)": "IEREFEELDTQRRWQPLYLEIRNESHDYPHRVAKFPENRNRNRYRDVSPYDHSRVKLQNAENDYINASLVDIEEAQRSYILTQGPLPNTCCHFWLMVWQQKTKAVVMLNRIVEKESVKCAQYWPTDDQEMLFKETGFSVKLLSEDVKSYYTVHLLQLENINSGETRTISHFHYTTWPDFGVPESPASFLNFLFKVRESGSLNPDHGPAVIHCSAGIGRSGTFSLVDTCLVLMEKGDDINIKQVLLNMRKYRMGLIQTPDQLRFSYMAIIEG", "assay": "PTPase inhibition, p-nitrophenyl phosphate substrate, Ki", "settings": "pH 7.0 (Table 5)", "procedure": "as §3, §2"}, "PTP1B G259M": {"target": "T6, PTP1B G259M (Homo sapiens, UniProt P18031, G259M)", "T6 sequence (P18031 1-435 G259M)": "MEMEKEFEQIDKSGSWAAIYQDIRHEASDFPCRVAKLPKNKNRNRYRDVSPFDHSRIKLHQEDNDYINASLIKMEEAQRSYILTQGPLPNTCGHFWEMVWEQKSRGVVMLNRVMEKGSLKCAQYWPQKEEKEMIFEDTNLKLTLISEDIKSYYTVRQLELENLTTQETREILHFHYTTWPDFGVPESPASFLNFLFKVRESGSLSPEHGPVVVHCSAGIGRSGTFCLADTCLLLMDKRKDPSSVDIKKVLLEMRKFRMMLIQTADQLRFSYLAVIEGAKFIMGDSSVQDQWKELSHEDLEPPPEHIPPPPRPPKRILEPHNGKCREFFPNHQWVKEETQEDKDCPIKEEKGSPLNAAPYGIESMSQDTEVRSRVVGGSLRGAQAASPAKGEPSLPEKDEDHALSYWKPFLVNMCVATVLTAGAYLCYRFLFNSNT", "assay": "Enzyme kinetic analysis with mutant PTPs, Ki", "settings": "pH 7.0", "text": "as §1, §2"}, "PTPH1 M259G": {"target": "T7, PTPH1 M259G (Homo sapiens, UniProt P26045, M883G)", "T7 sequence (P26045 628-913 M883G limits assumed)": "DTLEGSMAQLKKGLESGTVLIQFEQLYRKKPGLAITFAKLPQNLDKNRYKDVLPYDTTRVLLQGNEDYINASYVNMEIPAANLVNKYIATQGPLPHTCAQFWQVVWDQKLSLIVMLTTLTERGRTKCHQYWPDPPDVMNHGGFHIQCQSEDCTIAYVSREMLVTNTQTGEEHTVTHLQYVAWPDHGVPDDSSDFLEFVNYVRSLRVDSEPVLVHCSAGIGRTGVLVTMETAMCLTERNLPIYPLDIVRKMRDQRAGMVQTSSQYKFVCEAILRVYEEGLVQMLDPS", "assay": "Enzyme kinetic analysis with mutant PTPs, Ki", "settings": "pH 7.0", "text": "as §1, §2"}, "PTPα [2]": {"target": "T2, PTPα", "assay": "PTPase inhibition, p-nitrophenyl phosphate substrate, Ki", "settings": "pH 7.0 (Table 5); read-out: Ki values, PTPα"}},
  "note": "Like-named read-outs stand apart in the source and are kept apart here.",
  "data": [
    {"smiles": "O=C(O)C(=O)Nc1sc2c(c1C(=O)O)CCOC2COC1=NS(=O)(=O)c2ccccc21", "note": "(stereo not drawn) [Compound N, 7-(1,1-dioxo-1H-benzo[d]isothiazol-3-yloxymethyl)-2-(oxalyl-amino)-4,7-dihyd ro-5H-thieno[2,3-c]pyran-3-carboxylic acid]", "values": [
      {"measurement": "Ki", "setting": "PTPH1", "value": 55, "unit": "µM"},
      {"measurement": "Ki", "setting": "PTPα [1]", "value": "> 500", "unit": "µM"},
      {"measurement": "Ki", "setting": "PTPε", "value": 460, "unit": "µM"},
      {"measurement": "Ki", "setting": "PTPβ", "value": 15, "unit": "µM"},
      {"measurement": "Ki", "setting": "GLEPP1", "value": 150, "unit": "µM"},
      {"measurement": "Ki", "setting": "TC-PTP", "value": 0.6, "unit": "µM"},
      {"measurement": "Ki", "setting": "PTP1B G259M", "value": 55, "unit": "µM"},
      {"measurement": "Ki", "setting": "PTPH1 M259G", "value": 12, "unit": "µM"},
      {"measurement": "Ki", "setting": "PTPα [2]", "value": 700, "unit": "µM"}
    ]}
  ]
}
